Experimental data published in patent US12459951B2, “Compounds that interact with RAS superfamily proteins for treatment of cancers, inflammatory diseases, rasopathies, and fibrotic disease” (SHY Therapeutics, LLC, priority 2022, dated 2025).

What was measured:
[1] = tested on: MiaPaca-2 (expressing KRAS G12C mutant); experiment: Proliferation Assay (Cell Viability Assay); assay type: cell-based; conditions: Homo sapiens, MIA PaCa-2; read-out: Proliferation in MiaPaca-2: IC50
Summary of the method: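 After 2–4 days' exposure at 37 °C, 5% CO2 to a single 10 μM final concentration or a dilution series (IC50), percent proliferation inhibition was derived from CellTiter 96 Aqueous One viability readings. The medium contained 0.3% DMSO and 10% FBS. KRAS G12C MiaPaca-2 cells were plated at 2000–5000/well the day before.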

KRas G12D mutant = experiment: Ras GTP Binding Domain Inhibition Assay (Ras Superfamily Assay); conditions: 20 μM compound; for KRas G12D mutant + SOS: % inh.: with SOS; for KRas G12D mutant: % inh.: without SOS
Summary of the method: (§1)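 Ni-plate capture of His-tagged protein (10-30 μg/mL, o/n 4° C); cpd 20 μM or dilution series, 1% DMSO, 3 h RT ± Sos 556-1049 last h; 100 nM Cy-labelled GTP 45 min RT; 3× wash; fluorescence read.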

KRas wild type = experiment: as above; conditions: 20 μM compound; for KRas wild type + SOS: % inh.: with SOS; for KRas wild type: % inh.: without SOS
Summary of the method: as §1

Rac-1 = target: T1, Rac-1 (Homo sapiens, UniProt P63000); experiment: as above; conditions: read-out: Rac-1: % inh.
T1 construct: made in house
Summary of the method: as §1

| SMILES | IC50 [1] [nM] | KRas G12D mutant + SOS: % inh. (KRas G12D mutant) | KRas G12D mutant: % inh. (KRas G12D mutant) | KRas wild type + SOS: % inh. (KRas wild type) | KRas wild type: % inh. (KRas wild type) | inhibition at 20 µM (Rac-1) [%] |
| --- | --- | --- | --- | --- | --- | --- |
| Cc1c(-c2ccn(C3CC3)n2)cn2nc(-c3nccn3C)nc(Nc3ccccn3)c12 [Compound 143, 6-(1-Cyclopropyl-1H-pyrazol-3-yl)-5-methyl-2-(1-methyl-1H-imidazol-2-yl)-N-(pyridin-2-yl)pyrrolo[2,1-f][1,2,4]triazin-4-amine] | < 150 | D (D = 76-100% inhibition) | D (D = 76-100% inhibition) | D (D = 76-100% inhibition) | D (D = 76-100% inhibition) | 76 to 100 |
| Cc1ccnc(Nc2nc(-c3nccn3C)nn3cc(-c4ccn(C5CC5)n4)c(C)c23)c1 [Compound 144, 6-(1-Cyclopropyl-1H-pyrazol-3-yl)-5-methyl-2-(1-methyl-1H-imidazol-2-yl)-N-(4-methylpyridin-2-yl)pyrrolo[2,1-f][1,2,4]triazin-4-amine] | < 150 | D (D = 76-100% inhibition) | D (D = 76-100% inhibition) | D (D = 76-100% inhibition) | C (C = 50-75% inhibition) | 76 to 100 |
| Cc1c(-c2ccn(C3CC3)n2)cn2nc(-c3nccn3C)nc(Nc3cc(N(C)C)ccn3)c12 [Compound 145, N^2-(6-(1-Cyclopropyl-1H-pyrazol-3-yl)-5-methyl-2-(1-methyl-1H-imidazol-2-yl)pyrrolo[2,1-f][1,2,4]triazin-4-yl)-N^4,N^4-dimethylpyridine-2,4-diamine] | < 150 | D (D = 76-100% inhibition) | D (D = 76-100% inhibition) | D (D = 76-100% inhibition) | D (D = 76-100% inhibition) | 76 to 100 |
| Cc1c(-c2ccn(C3CC3)n2)cn2nc(-c3nccn3C)nc(Nc3cc(OCCCO)ccn3)c12 [Compound 149, 3-((2-((6-(1-Cyclopropyl-1H-pyrazol-3-yl)-5-methyl-2-(1-methyl-1H-imidazol-2-yl)pyrrolo[2,1-f][1,2,4]triazin-4-yl)amino)pyridin-4-yl)oxy)propan-1-ol] | 510 to 1000 | D (D = 76-100% inhibition) | D (D = 76-100% inhibition) | D (D = 76-100% inhibition) | D (D = 76-100% inhibition) | 76 to 100 |
| Cc1c(-c2ccn(C3CC3)n2)cn2nc(-c3nccn3C)nc(Nc3cc(O)ccn3)c12 [Compound 150, 2-((6-(1-Cyclopropyl-1H-pyrazol-3-yl)-5-methyl-2-(1-methyl-1H-imidazol-2-yl)pyrrolo[2,1-f][1,2,4]triazin-4-yl)amino)pyridin-4-ol] | > 1000 | D (D = 76-100% inhibition) | D (D = 76-100% inhibition) | D (D = 76-100% inhibition) | D (D = 76-100% inhibition) | 50 to 75 |
| CO[C@H]1C[C@H](Nc2nc(-c3nccn3C)nn3cc(-c4cccnc4)c(C)c23)C1 [Compound 151, N-((1r,3r)-3-Methoxycyclobutyl)-5-methyl-2-(1-methyl-1H-imidazol-2-yl)-6-(pyridin-3-yl)pyrrolo[2,1-f][1,2,4]triazin-4-amine] | > 1000 | D (D = 76-100% inhibition) | B (B = 26-49% inhibition) | C (C = 50-75% inhibition) | C (C = 50-75% inhibition) | 50 to 75 |
| COCCO[C@H]1C[C@H](Nc2nc(-c3nccn3C)nn3cc(-c4cccnc4)c(C)c23)C1 [Compound 152, N-((1r,3r)-3-(2-methoxyethoxy)cyclo-butyl)-5-methyl-2-(1-methyl-1H-imidazol-2-yl)-6-(pyridin-3-yl)pyrrolo[2,1-f][1,2,4]triazin-4-amine] | > 1000 | C (C = 50-75% inhibition) | C (C = 50-75% inhibition) | B (B = 26-49% inhibition) | C (C = 50-75% inhibition) | 50 to 75 |
| CO[C@H]1C[C@@H](Nc2nc(-c3nccn3C)nn3cc(-c4cccnc4)c(C)c23)C1 [Compound 153, N-((1s,3s)-3-methoxy-cyclobutyl)-5-methyl-2-(1-methyl-1H-imidazol-2-yl)-6-(pyridin-3-yl)pyrrolo[2,1-f][1,2,4]triazin-4-amine] | > 1000 | C (C = 50-75% inhibition) | C (C = 50-75% inhibition) | B (B = 26-49% inhibition) | B (B = 26-49% inhibition) | 50 to 75 |
| Cc1c(-c2cccnc2)cn2nc(-c3nccn3C)nc(Nc3ccncn3)c12 [Compound 156, 5-Methyl-2-(1-methyl-1H-imidazol-2-yl)-6-(pyridin-3-yl)-N-(pyrimidin-4-yl)pyrrolo[2,1-f][1,2,4]triazin-4-amine] | < 150 | D (D = 76-100% inhibition) | D (D = 76-100% inhibition) | D (D = 76-100% inhibition) | D (D = 76-100% inhibition) | 76 to 100 |

Second part, the compound after the results:

| IC50 [1] [nM] | KRas G12D mutant + SOS: % inh. (KRas G12D mutant) | KRas G12D mutant: % inh. (KRas G12D mutant) | KRas wild type + SOS: % inh. (KRas wild type) | KRas wild type: % inh. (KRas wild type) | inhibition at 20 µM (Rac-1) [%] | SMILES |
| --- | --- | --- | --- | --- | --- | --- |
| < 150 | D (D = 76-100% inhibition) | D (D = 76-100% inhibition) | D (D = 76-100% inhibition) | C (C = 50-75% inhibition) | 50 to 75 | Cc1c(-c2ccn(C3CC3)n2)cn2nc(-c3nccn3C)nc(Nc3cc(OC(F)(F)F)ccn3)c12 [Compound 138, 6-(1-Cyclopropyl-1H-pyrazol-3-yl)-5-methyl-2-(1-methyl-1H-imidazol-2-yl)-N-(4-(trifluoromethoxy)pyridin-2-yl)pyrrolo[2,1-f][1,2,4]triazin-4-amine] |
| < 150 | D (D = 76-100% inhibition) | D (D = 76-100% inhibition) | D (D = 76-100% inhibition) | D (D = 76-100% inhibition) | 76 to 100 | Cc1c(-c2ccn(C3CC3)n2)cn2nc(-c3nccn3C)nc(Nc3cc(OC(F)F)ccn3)c12 [Compound 139, 6-(1-Cyclopropyl-1H-pyrazol-3-yl)-N-(4-(difluoromethoxy)pyridin-2-yl)-5-methyl-2-(1-methyl-1H-imidazol-2-yl)pyrrolo[2,1-f][1,2,4]triazin-4-amine] |
| < 150 | D (D = 76-100% inhibition) | C (C = 50-75% inhibition) | C (C = 50-75% inhibition) | C (C = 50-75% inhibition) | 76 to 100 | Cc1c(-c2ccn(C3CC3)n2)cn2nc(-c3nccn3C)nc(Nc3cc(OCC(F)(F)F)ccn3)c12 [Compound 140, 6-(1-Cyclopropyl-1H-pyrazol-3-yl)-5-methyl-2-(1-methyl-1H-imidazol-2-yl)-N-(4-(2,2,2-trifluoroethoxy)pyridin-2-yl)pyrrolo[2,1-f][1,2,4]triazin-4-amine] |
| < 150 | D (D = 76-100% inhibition) | D (D = 76-100% inhibition) | B (B = 26-49% inhibition) | C (C = 50-75% inhibition) | 76 to 100 | CCOc1ccnc(Nc2nc(-c3nccn3C)nn3cc(-c4ccn(C5CC5)n4)c(C)c23)c1 [Compound 141, 6-(1-Cyclopropyl-1H-pyrazol-3-yl)-N-(4-ethoxypyridin-2-yl)-5-methyl-2-(1-methyl-1H-imidazol-2-yl)pyrrolo[2,1-f][1,2,4]triazin-4-amine] |
| < 150 | D (D = 76-100% inhibition) | D (D = 76-100% inhibition) | D (D = 76-100% inhibition) | D (D = 76-100% inhibition) | 76 to 100 | Cc1c(-c2ccn(C3CC3)n2)cn2nc(-c3nccn3C)nc(Nc3cc(OC4CC4)ccn3)c12 [Compound 142, N-(4-Cyclopropoxypyridin-2-yl)-6-(1-cyclopropyl-1H-pyrazol-3-yl)-5-methyl-2-(1-methyl-1H-imidazol-2-yl)pyrrolo[2,1-f][1,2,4]triazin-4-amine] |
| 150 to 500 | D (D = 76-100% inhibition) | D (D = 76-100% inhibition) | D (D = 76-100% inhibition) | D (D = 76-100% inhibition) | 76 to 100 | Cc1c(-c2ccn(C3CC3)n2)cn2nc(-c3nccn3C)nc(Nc3cc(OCCO)ccn3)c12 [Compound 146, 2-((2-((6-(1-Cyclopropyl-1H-pyrazol-3-yl)-5-methyl-2-(1-methyl-1H-imidazol-2-yl)pyrrolo[2,1-f][1,2,4]triazin-4-yl)amino)pyridin-4-yl)oxy)ethan-1-ol] |
